Patent publication US8324378B2, “Prodrugs and conjugates of prenylation inhibitors” (Purdue Research Foundation, priority 2007, dated 2012)
Read-outs that look alike come from different tables or passages of the source.

Experiments:
FTase [1] = target: T1, FTase (Homo sapiens, UniProt P49354+P49356); settings: background, have been shown; cited from earlier work
FTase [2] = target: T1, FTase; assay: in vitro inhibition of FTase by farnesylated monophosphates; assay type: biochemical
[3] = read-out: IC50 for inhibition of FTase

Compound	inhibition of FTase, described in words (FTase [1])	IC50 (FTase [2]; [3]) [nM]	other results
CC(C)=CCCC(C)=CCCC(=CCOP(=O)(O)OP(=O)(O)O)C(C)(C)C [pyrophosphate of 3-t-butylfarnesol]	nanomolar inhibitors	–	–
CC(C)=CCCC(C)=CCCC(=CCOP(=O)(O)OP(=O)(O)O)CC=C(C)C [pyrophosphate of 3-(3,3-dimethylallyl)farnesol]	protein-selective inhibitor	–	–
C=CCC(=CCOP(=O)(O)OP(=O)(O)O)CCC=C(C)CCC=C(C)C [pyrophosphate of 3-allylfarnesol]	nanomolar inhibitors	–	–
CC(C)=CCCC(C)=CCCC(=CCOP(=O)(O)O)CC=C(C)C [3-(3,3-dimethylallyl)farnesyl monophosphate]	–	–	IC50 (FTase [2]; highest dose tested 10 uM, read-out: IC50 for inhibition of FTase (not showing 50% inhibition at the highest dose tested)): > 10000 nM
CC(C)=CCCC(C)=CCCC(=CCOP(=O)(O)O)C(C)(C)C [3-t-butylfarnesyl monophosphate]	–	~16	–
C=CCC(=CCOP(=O)(O)O)CCC=C(C)CCC=C(C)C [3-Allylfarnesyl monophosphate, 3-allylfarnesyl monophosphate]	–	~11	–
